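Method: 48-hour compound exposure of cells in 96-well plates, five concentrations, linear interpolation of endpoints. Abbreviation: GI50, concentration required for 50% inhibition of growth. The concentration for full growth arrest is given as TGI.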

Our source for the TGI and GI50 values is PubChem BioAssay (NCI).

Some test systems named below: HCT-116 colon; IGROV1 ovarian; MOLT-4 leukemia; NCI-H226 lung; OVCAR-4 ovarian; RPMI-8226 leukemia; SF-268 CNS; SF-539 CNS; SW-620 colon; T-47D breast.
Assay in all cases: NCI tumour cell line growth inhibition, 48 h

For `O=C(NN=C1CCN(Cc2ccccc2)CC1)C(O)(c1ccccc1)c1ccccc1`, the TGI in the assay with HCT-116 colon, in the assay on IGROV1 ovarian, with MOLT-4 leukemia, in the assay on NCI-H226 lung, in the assay on OVCAR-4 ovarian and in the assay on RPMI-8226 leukemia was above 100 µM in each case. The TGI with SF-268 CNS, in the assay with SF-539 CNS, with SW-620 colon and in the assay with T-47D breast was above 100 µM in each case.
With `COc1ccc2c(c1)C(N)CC2=O` (stereo not given), the TGI with HCT-116 colon, with IGROV1 ovarian, in the assay with MOLT-4 leukemia, in the assay on NCI-H226 lung, in the assay with OVCAR-4 ovarian and with RPMI-8226 leukemia was above 100 µM throughout. The TGI in the assay with SF-268 CNS, in the assay on SF-539 CNS, in the assay on SW-620 colon and in the assay with T-47D breast was above 100 µM in each case.
For the compound `O=c1c2ccccc2nc2n1NC(c1c(Cl)cccc1Cl)N2c1cccc(Cl)c1` (stereo not given), the TGI was 11.6 µM in the assay with HCT-116 colon; 22.4 µM in the assay with IGROV1 ovarian; above 100 µM in the assay with MOLT-4 leukemia; 6.36 µM in the assay with NCI-H226 lung; 6.73 µM in the assay with OVCAR-4 ovarian; above 100 µM with RPMI-8226 leukemia. For the same compound, the TGI was above 100 µM in the assay with SF-268 CNS, 31 µM in the assay with SF-539 CNS, 14.3 µM in the assay with SW-620 colon and 32.2 µM in the assay on T-47D breast.
As to `OC1(c2ccccc2)CC2CCC(C1)N2CCc1ccccc1` (stereo not given), the TGI in the assay on HCT-116 colon, in the assay with IGROV1 ovarian, with MOLT-4 leukemia, in the assay on NCI-H226 lung, with OVCAR-4 ovarian and in the assay with RPMI-8226 leukemia was above 100 µM throughout. In addition, the TGI in the assay on SF-268 CNS, in the assay with SF-539 CNS, in the assay on SW-620 colon and in the assay with T-47D breast was above 100 µM each time.
As for `Cc1ccc(/C=C2\CN(C)CC3=C2OC(N)=C(C#N)C3c2ccc(C)cc2)cc1` (stereo not given), the TGI in the assay on HCT-116 colon was 27.5 µM; in the assay on IGROV1 ovarian, 39.4 µM; in the assay on MOLT-4 leukemia, above 51 µM; in the assay on NCI-H226 lung, 72.4 µM; in the assay with OVCAR-4 ovarian it was 34 µM; with RPMI-8226 leukemia it was above 48.7 µM. In addition, the TGI was above 100 µM in the assay with SF-268 CNS, above 100 µM with SF-539 CNS, above 100 µM in the assay on SW-620 colon and 71.2 µM in the assay with T-47D breast.
Take `CCc1ccc(-c2nnc(COc3ccc(-c4nc5ccc(C)cc5[nH]4)cc3OC)o2)cc1`: the GI50 in the assay on HCT-116 colon is 3.19 µM; in the assay on IGROV1 ovarian it was 4.94 µM; in the assay with MOLT-4 leukemia, 3.26 µM; in the assay on NCI-H226 lung, 2.01 µM; in the assay with OVCAR-4 ovarian it was 1.74 µM; in the assay on RPMI-8226 leukemia, 2.26 µM. The GI50 with SF-268 CNS is 4.47 µM; in the assay on SF-539 CNS it was 1.7 µM; with SW-620 colon it was 3.75 µM; in the assay with T-47D breast it was 2.15 µM. The TGI in the assay with HCT-116 colon was 11.2 µM; in the assay on IGROV1 ovarian, above 100 µM; with MOLT-4 leukemia, above 100 µM; in the assay on NCI-H226 lung it was 4.28 µM; in the assay with OVCAR-4 ovarian, 3.53 µM; in the assay on RPMI-8226 leukemia, 5.75 µM. The TGI is above 100 µM in the assay with SF-268 CNS, 3.21 µM with SF-539 CNS, 62.4 µM with SW-620 colon and 5.22 µM with T-47D breast.
Take `CCOc1c2ccsc2c(OCC)c2ccsc12`: the TGI in the assay on HCT-116 colon is above 100 µM; in the assay on IGROV1 ovarian, above 100 µM; in the assay with MOLT-4 leukemia, above 28.5 µM; in the assay on NCI-H226 lung, above 100 µM; with OVCAR-4 ovarian, above 100 µM; with RPMI-8226 leukemia it was above 100 µM. The TGI with SF-268 CNS was above 100 µM; in the assay on SF-539 CNS, 9.79 µM; in the assay on SW-620 colon, above 100 µM; in the assay with T-47D breast, above 100 µM.
With `CCOC(=O)c1c(C)n(Cc2ccccc2)c(=O)c2ccccc2c(=O)c2c(=O)ccc(=O)c1=2`, the TGI is 46.8 µM with HCT-116 colon; 67.9 µM with IGROV1 ovarian; above 100 µM in the assay with MOLT-4 leukemia; above 100 µM in the assay on NCI-H226 lung; above 100 µM in the assay on OVCAR-4 ovarian; 67.3 µM with RPMI-8226 leukemia. The TGI in the assay with SF-268 CNS is above 100 µM; in the assay with SF-539 CNS it was above 100 µM; in the assay with SW-620 colon, above 100 µM; in the assay on T-47D breast, 86.3 µM.
With `COc1cc(NS(C)(=O)=O)ccc1NCc1cnc2ccc3[nH]c(C)ccc3c12`, the TGI is above 100 µM in the assay on HCT-116 colon; above 100 µM in the assay on IGROV1 ovarian; 44.7 µM in the assay on MOLT-4 leukemia; above 100 µM in the assay with NCI-H226 lung; above 100 µM with OVCAR-4 ovarian; 45.2 µM with RPMI-8226 leukemia. In addition, the TGI with SF-268 CNS is above 100 µM; in the assay with SF-539 CNS it was above 100 µM; in the assay on SW-620 colon it was above 100 µM; in the assay on T-47D breast, 75 µM.
On to `Cc1[nH]c2ncn3nc(C(Cl)(Cl)Cl)nc3c2c1Cc1ccccc1`, for which the TGI in the assay on HCT-116 colon, with IGROV1 ovarian, with MOLT-4 leukemia, in the assay on NCI-H226 lung, in the assay with OVCAR-4 ovarian and in the assay on RPMI-8226 leukemia was above 100 µM each time. Moreover, the TGI in the assay with SF-268 CNS, in the assay on SF-539 CNS, in the assay with SW-620 colon and with T-47D breast was above 100 µM each time.
